Experimental data taken from patent US7365231B2, “Compound with antitumor activity and preparation method therefor” (National Taiwan University of Science & Technology, priority 2005, dated 2008).

Key:
Assay in all cases: NCI panel growth inhibition, sulforhodamine B
Assay type in all cases: cell-based
HCT-15 = conditions: Homo sapiens; HCT-15, Colon cancer; drug for last 48 h of 72 h
Description: (§1) Comparison of anticancer activities of the 1,3-substituted adamantane derivatives, 1,3-bis(4-aminophenyl)adamantane (1,3-DPANH2), 1,3-bis(4-(4-aminophenoxy)phenyl)adamantane (1,3-DPAONH2), 1,3-bis(4-(4-amino-3-hydroxy)phenyl)adamantane (1,3-DPA/OH/NH2) and 1,3-bis(4-(4-amino-2-trifluoromethylphenoxy)phenyl)adamantane (1,3-DPA/CF3/NH2) as shown in FIG. 1 were synthesized in the present invention. Those compounds were submitted to the National Cancer Institute for anticancer assay in culture against a standard panel of cell lines. […] To further confirm that the different substituents (CF3 and OH) on the phenyl ring of 1,3-DPAONH2 affect the growth inhibition of cancer cells. […] The transformations of 1,3-DPAONH2 to 1,3-DPA/OH/NH2 led to a remarked enhancement of anticancer activity toward all the tested cancer lines. The role of the OH group at the ortho position of the NH2 on growth inhibition is remarkable. In addition, one compound (1,3-DPA/OH/NH2) was confirmed to have an IC50 of <1 μM against one of the cells (BT-549 breast carcinoma). Comparison of anticancer activities of 1,3-substituted diaminophenyladamantane derivatives, the following order of potency against the tested cancer lines was observed: 1,3-DPA/OH/NH2>1,3-DPAONH2>1,3-DPANH2>1,3-DPA/CF3/NH2.

HL-60(TB) = conditions: Homo sapiens, Leukemia, drug for last 48 h of 72 h
Description: as §1

IGROV1 = conditions: Homo sapiens, IGROV-1; IGROV1, Ovarian cancer; drug for last 48 h of 72 h
Description: as §1

SW-620 = conditions: Homo sapiens; SW-620, Colon cancer; drug for last 48 h of 72 h
Description: as §1

A549/ATCC = conditions: Homo sapiens, NSCLC, drug for last 48 h of 72 h
Description: as §1

MCF-7 = conditions: Homo sapiens, MCF7; MCF-7, Breast cancer; drug for last 48 h of 72 h
Description: as §1

M14 = conditions: Homo sapiens; M14, Melanoma; drug for last 48 h of 72 h
Description: as §1

HOP-62 = conditions: Homo sapiens; HOP-62, NSCLC; drug for last 48 h of 72 h
Description: as §1

MDA-MB-435 = conditions: Homo sapiens; MDA-MB-435, Breast cancer; drug for last 48 h of 72 h
Description: as §1

OVCAR-5 = conditions: Homo sapiens; OVCAR-5, Ovarian cancer; drug for last 48 h of 72 h
Description: as §1

SK-MEL-28 = conditions: Homo sapiens; SK-MEL-28, Melanoma; drug for last 48 h of 72 h
Description: as §1

LOX IMVI = conditions: Homo sapiens, Melanoma, drug for last 48 h of 72 h
Description: as §1

UACC-62 = conditions: Homo sapiens; UACC-62, Melanoma; drug for last 48 h of 72 h
Description: as §1

ACHN = conditions: Homo sapiens, Renal cancer, drug for last 48 h of 72 h
Description: as §1

PC-3 = conditions: Homo sapiens; PC-3, Prostate cancer; drug for last 48 h of 72 h
Description: as §1

CCRF-CEM = conditions: Homo sapiens, Leukemia, drug for last 48 h of 72 h
Description: as §1

UO-31 = conditions: Homo sapiens; UO-31, Renal cancer; drug for last 48 h of 72 h
Description: as §1

U251 = conditions: Homo sapiens, U-251; U251, CNS cancer; drug for last 48 h of 72 h
Description: as §1

KM12 = conditions: Homo sapiens, KM12, KM12, Colon cancer; drug for last 48 h of 72 h
Description: as §1

SF-268 = conditions: Homo sapiens; SF-268, CNS cancer; drug for last 48 h of 72 h
Description: as §1

SK-MEL-5 = conditions: Homo sapiens; SK-MEL-5, Melanoma; drug for last 48 h of 72 h
Description: as §1

DU-145 = conditions: Homo sapiens; DU-145, Prostate cancer; drug for last 48 h of 72 h
Description: as §1

OVCAR-4 = conditions: Homo sapiens; OVCAR-4, Ovarian cancer; drug for last 48 h of 72 h
Description: as §1

EKVX = conditions: Homo sapiens, NSCLC, drug for last 48 h of 72 h
Description: as §1

NCI-H23 = conditions: Homo sapiens; NCI-H23, NSCLC; drug for last 48 h of 72 h
Description: as §1

NCI-H226 = conditions: Homo sapiens; NCI-H226, NSCLC; drug for last 48 h of 72 h
Description: as §1

SNB-19 = conditions: Homo sapiens; SNB-19, CNS cancer; drug for last 48 h of 72 h
Description: as §1

TK-10 = conditions: Homo sapiens; TK-10, Renal cancer; drug for last 48 h of 72 h
Description: as §1

MDA-N = conditions: Homo sapiens, Breast cancer, drug for last 48 h of 72 h
Description: as §1

CAKI-1 = conditions: Homo sapiens; CAKI-1, Renal cancer; drug for last 48 h of 72 h
Description: as §1

Nc1ccc(Oc2ccc(C3(c4ccc(Oc5ccc(N)c(O)c5)cc4)C4CC5CC(C4)CC3C5)cc2)cc1O [DPA, 2,2-bis(4-(4-amino-3-hydroxyphenoxy)phenyl)adamantane]
IC50 (HCT-15): 1670 nM
IC50 (HL-60(TB)): 2050 nM
IC50 (IGROV1): 1750 nM
IC50 (SW-620): 1630 nM
IC50 (A549/ATCC): 1940 nM
IC50 (MCF-7): 1930 nM
IC50 (M14): 1690 nM
IC50 (HOP-62): 2110 nM
IC50 (MDA-MB-435): 2300 nM
IC50 (OVCAR-5): 2080 nM
IC50 (SK-MEL-28): 1680 nM
IC50 (LOX IMVI): 1690 nM
IC50 (UACC-62): 3210 nM
IC50 (ACHN): 1780 nM
IC50 (PC-3): 1600 nM
IC50 (CCRF-CEM): 3080 nM
IC50 (UO-31): 1850 nM
IC50 (U251): 1700 nM
IC50 (KM12): 2020 nM
IC50 (SF-268): 1620 nM
IC50 (SK-MEL-5): 1560 nM
IC50 (DU-145): 2060 nM
IC50 (OVCAR-4): 3070 nM
IC50 (EKVX): 2630 nM
IC50 (NCI-H23): 1840 nM
IC50 (NCI-H226): 1940 nM
IC50 (SNB-19): 3010 nM
IC50 (TK-10): 2160 nM
IC50 (MDA-N): 2140 nM
IC50 (CAKI-1): 2320 nM
